Experimental data as given in the NIST ThermoML archive (doi:10.1016/j.jct.2018.11.010).

Assay: xn = mol fraction of the nth substance listed
Conditions: Liquid, Vibrating tube method

CCCCCCCO [heptan-1-ol] + CCCCOCCCC
mass density [kg/m3]
Conditions	x2 = 0	x2 = 0.1488	x2 = 0.3201	x2 = 0.4944	x2 = 0.7014	x2 = 0.8534
298.15 K, 100 kPa	818.7	810.1	800.3	790.9	779.5	771.7
298.15 K, 1000 kPa	819.3	810.8	801	791.6	780.2	772.5
298.15 K, 5000 kPa	821.9	813.5	803.9	794.6	783.5	775.8
298.15 K, 10000 kPa	824.9	816.7	807.3	798.3	787.3	779.9
298.15 K, 15000 kPa	828	819.9	810.6	801.8	791	783.7
298.15 K, 20000 kPa	830.8	822.9	813.8	805	794.5	787.4
298.15 K, 25000 kPa	833.5	825.8	816.9	808.3	797.9	790.8
298.15 K, 30000 kPa	836.3	828.6	819.8	811.4	801.1	794.2
298.15 K, 35000 kPa	838.8	831.2	822.6	814.3	804.2	797.4
298.15 K, 40000 kPa	841.3	833.9	825.3	817.1	807.3	800.5
298.15 K, 45000 kPa	843.8	836.5	828	819.9	810.2	803.5
298.15 K, 50000 kPa	846.2	838.9	830.6	822.6	813	806.4
298.15 K, 55000 kPa	848.5	841.3	833.1	825.3	815.7	809.2
298.15 K, 60000 kPa	850.8	843.7	835.5	827.8	818.4	811.9
298.15 K, 65000 kPa	853	845.9	837.9	830.3	820.9	814.6
298.15 K, 70000 kPa	855.2	848.2	840.3	832.7	823.5	817.2
298.15 K, 80000 kPa	859.4	852.6	844.8	837.3	828.3	822.2
298.15 K, 90000 kPa	863.5	856.7	849.1	841.9	833	827
298.15 K, 100000 kPa	867.3	860.7	853.2	846.1	837.4	831.5
298.15 K, 110000 kPa	871.1	864.6	857.2	850.2	841.6	835.8
298.15 K, 120000 kPa	874.6	868.2	861	854	845.6	839.9
298.15 K, 130000 kPa	878.1	871.8	864.6	857.8	849.6	843.9
298.15 K, 140000 kPa	881.5	875.3	868.2	861.4	853.3	847.8
313.15 K, 100 kPa	808	799	788.8	778.9	767	758.8
313.15 K, 1000 kPa	808.6	799.7	789.5	779.7	767.8	759.7
313.15 K, 5000 kPa	811.4	802.6	792.5	783	771.3	763.3
313.15 K, 10000 kPa	814.7	806.1	796.3	786.9	775.6	767.8
313.15 K, 15000 kPa	817.9	809.5	799.8	790.7	779.5	771.9
313.15 K, 20000 kPa	821	812.7	803.3	794.3	783.4	775.9
313.15 K, 25000 kPa	823.8	815.6	806.4	797.5	786.8	779.4
313.15 K, 30000 kPa	826.8	818.8	809.7	801	790.5	783.3
313.15 K, 35000 kPa	829.5	821.6	812.7	804.2	793.7	786.7
313.15 K, 40000 kPa	832.1	824.4	815.5	807.1	796.9	790
313.15 K, 45000 kPa	834.7	827	818.3	810.1	800	793.2
313.15 K, 50000 kPa	837.2	829.7	821.1	812.9	803	796.3
313.15 K, 55000 kPa	839.7	832.3	823.8	815.7	805.9	799.3
313.15 K, 60000 kPa	842.1	834.8	826.4	818.4	808.7	802.2
313.15 K, 65000 kPa	844.4	837.2	828.9	821	811.5	804.9
313.15 K, 70000 kPa	846.7	839.6	831.3	823.5	814.1	807.7
313.15 K, 80000 kPa	851.1	844	836	828.4	819.1	812.9
313.15 K, 90000 kPa	855.3	848.4	840.6	833.2	824	817.9
313.15 K, 100000 kPa	859.3	852.5	844.8	837.5	828.7	822.6
313.15 K, 110000 kPa	863.2	856.6	849.1	841.8	833.2	827.2
313.15 K, 120000 kPa	867	860.4	853	845.9	837.3	831.5
313.15 K, 130000 kPa	870.6	864.2	856.9	849.9	841.4	835.7
313.15 K, 140000 kPa	874.2	867.8	860.6	853.7	845.4	839.8
333.15 K, 100 kPa	793.3	783.8	772.9	762.5	749.9	741.3
333.15 K, 1000 kPa	794	784.6	773.7	763.4	750.8	742.3
333.15 K, 5000 kPa	797.1	787.8	777.2	767.1	754.8	746.5
333.15 K, 10000 kPa	800.7	791.7	781.4	771.5	759.6	751.4
333.15 K, 15000 kPa	804.3	795.4	785.3	775.8	764.1	756.1
333.15 K, 20000 kPa	807.7	798.9	789.1	779.6	768.3	760.5
333.15 K, 25000 kPa	810.8	802.3	792.6	783.4	772.2	764.7
333.15 K, 30000 kPa	813.9	805.5	796	787	776.1	768.6
333.15 K, 35000 kPa	816.9	808.7	799.3	790.4	779.7	772.4
333.15 K, 40000 kPa	819.8	811.7	802.5	793.7	783.2	776.1
333.15 K, 45000 kPa	822.4	814.5	805.5	796.9	786.5	779.5
333.15 K, 50000 kPa	825.2	817.4	808.5	800	789.8	782.9
333.15 K, 55000 kPa	827.8	820.1	811.3	802.9	792.9	786
333.15 K, 60000 kPa	830.3	822.7	814.1	805.8	795.9	789.2
333.15 K, 65000 kPa	832.9	825.3	816.8	808.6	798.9	792.2
333.15 K, 70000 kPa	835.3	827.9	819.5	811.4	801.7	795.1
333.15 K, 80000 kPa	839.9	832.7	824.4	816.6	807.1	800.7
333.15 K, 90000 kPa	844.5	837.4	829.3	821.6	812.3	806
333.15 K, 100000 kPa	848.7	841.7	833.8	826.3	817.2	811.1
333.15 K, 110000 kPa	852.8	845.9	838.2	830.8	821.9	815.9
333.15 K, 120000 kPa	856.8	850	842.3	835.1	826.4	820.5
333.15 K, 130000 kPa	860.5	853.9	846.4	839.3	830.7	824.8
333.15 K, 140000 kPa	864.3	–	–	–	–	–
